Literature values in US20090061012A1 (priority 2007, published 2009).

What was measured:
Conditions in all cases: in vivo
sharks [1] = test system: sharks
[2] = test system: Lemon, Blue, and Great White Sharks
sharks [3] = test system: sharks; remark: listed apart in the source
[4] = test system: shark's respiratory systems via the gill rakes

## CCCCCCCCCCCCOS(=O)(=O)[O-].[Na+] [SDS, sodium dodecyl sulphate]
Sharks [1]
  concentration at which effective as a repellent: 43.6 ppm

## CCCCCCCCCCCCOS(=O)(=O)[O-].[Li+] [LLS, lithium lauryl sulfate]
[2]
  repelling sharks relative to pardaxin: even better than pardaxin

## CCCCCCCCCCCCOS(=O)(=O)[O-].[Na+] [SLS, sodium lauryl sulfate]
Sharks [3]
  effectiveness in surrounding-cloud mode dispersions: not effective
[2]
  repelling sharks relative to pardaxin: even better than pardaxin

## CCCCCCCCCCCCCCCCCCOS(=O)(=O)[O-].[Na+] [SOS, sodium octadecyl sulphate]
[2]
  repelling sharks relative to pardaxin: even better than pardaxin

## pardaxin
[4]
  repellent impact on sharks: significant repellent impact
